What was measured:
[1] = Intrinsic clearance in human hepatocytes measured per 10^6 cells; type: ADME, cell-based, Hepatocyte; details: read-out: CLH
[2] = Clearance in rat at 0.5 mg/kg, iv; type: ADME, organism-based; set-up: dose 0.5 mg/kg, route intravenous; details: in vivo
[3] = Half life in rat at 0.5 mg/kg, iv; type: ADME, organism-based; set-up: dose 0.5 mg/kg, route intravenous; details: in vivo
[4] = Volume of distribution at steady state in rat at 0.5 mg/kg, iv; type: ADME, organism-based; set-up: dose 0.5 mg/kg, route intravenous; details: in vivo, read-out: Vdss
[5] = Clearance in mouse at 0.5 mg/kg, iv; type: ADME, organism-based; set-up: dose 0.5 mg/kg, route intravenous; details: in vivo
[6] = Half life in mouse at 0.5 mg/kg, iv; type: ADME, organism-based; set-up: dose 0.5 mg/kg, route intravenous; details: in vivo
[7] = Volume of distribution at steady state in mouse at 0.5 mg/kg, iv; type: ADME, organism-based; set-up: dose 0.5 mg/kg, route intravenous; details: in vivo, read-out: Vdss
[8] = Oral bioavailability in mouse at 5 mg/kg; type: ADME, organism-based; details: in vivo
[9] = Drug metabolism in mouse hepatocytes assessed as oxidative metabolite formation at 10 uM after 2 hrs by LC-MS/MS analysis; type: ADME, cell-based, Hepatocyte
[10] = Drug metabolism in rat hepatocytes assessed as oxidative metabolite formation at 10 uM after 2 hrs by LC-MS/MS analysis; type: ADME, cell-based, Hepatocyte
[11] = Drug metabolism in dog hepatocytes assessed as oxidative metabolite formation at 10 uM after 2 hrs by LC-MS/MS analysis; type: ADME, cell-based, Canis lupus familiaris, Hepatocyte
[12] = Drug metabolism in monkey hepatocytes assessed as oxidative metabolite formation at 10 uM after 2 hrs by LC-MS/MS analysis; type: ADME, cell-based, Macaca mulatta, Hepatocyte; details: rhesus monkey
[13] = Drug metabolism in human hepatocytes assessed as oxidative metabolite formation at 10 uM after 2 hrs by LC-MS/MS analysis; type: ADME, cell-based, Hepatocyte
[14] = Drug metabolism in mouse hepatocytes assessed as 2-(2-(((3R,5R,6S)-1-((S)-2-(tert-butylsulfonyl)-1-cyclopropylethyl)-6-(4-chloro-3-fluorophenyl)-5-(3-chlorophenyl)-3-methyl-2-oxopiperidin-3-yl)methyl)thiazol-5-yl)acetic acid formation at 10 uM after 2 hrs by LC-MS/MS analysis; type: ADME, cell-based, Hepatocyte
[15] = Drug metabolism in rat hepatocytes assessed as 2-(2-(((3R,5R,6S)-1-((S)-2-(tert-butylsulfonyl)-1-cyclopropylethyl)-6-(4-chloro-3-fluorophenyl)-5-(3-chlorophenyl)-3-methyl-2-oxopiperidin-3-yl)methyl)thiazol-5-yl)acetic acid formation at 10 uM after 2 hrs by LC-MS/MS analysis; type: ADME, cell-based, Hepatocyte
[16] = Drug metabolism in dog hepatocytes assessed as 2-(2-(((3R,5R,6S)-1-((S)-2-(tert-butylsulfonyl)-1-cyclopropylethyl)-6-(4-chloro-3-fluorophenyl)-5-(3-chlorophenyl)-3-methyl-2-oxopiperidin-3-yl)methyl)thiazol-5-yl)acetic acid formation at 10 uM after 2 hrs by LC-MS/MS analysis; type: ADME, cell-based, Canis lupus familiaris, Hepatocyte
[17] = Drug metabolism in monkey hepatocytes assessed as 2-(2-(((3R,5R,6S)-1-((S)-2-(tert-butylsulfonyl)-1-cyclopropylethyl)-6-(4-chloro-3-fluorophenyl)-5-(3-chlorophenyl)-3-methyl-2-oxopiperidin-3-yl)methyl)thiazol-5-yl)acetic acid formation at 10 uM after 2 hrs by LC-MS/MS analysis; type: ADME, cell-based, Macaca mulatta, Hepatocyte; details: rhesus monkey
[18] = Drug metabolism in human hepatocytes assessed as 2-(2-(((3R,5R,6S)-1-((S)-2-(tert-butylsulfonyl)-1-cyclopropylethyl)-6-(4-chloro-3-fluorophenyl)-5-(3-chlorophenyl)-3-methyl-2-oxopiperidin-3-yl)methyl)thiazol-5-yl)acetic acid metabolite formation at 10 uM after 2 hrs by LC-MS/MS analysis; type: ADME, cell-based, Hepatocyte

SMILES: CC(C)(C)S(=O)(=O)C[C@H](C1CC1)N1C(=O)[C@@](C)(Cc2ccc(C(=O)O)cn2)C[C@H](c2cccc(Cl)c2)[C@H]1c1ccc(Cl)cc1
- hepatocyte CLint [1]: 10 µL/min/1e6 cells
- clearance [2]: 6 mL/min/kg
- half-life [3]: 1.8 h
- Vd [4]: 0.41 L/kg
- clearance [5]: 3.83 mL/min/kg
- half-life [6]: 2.8 h
- Vd [7]: 0.57 L/kg
- bioavailability [8]: 60%

SMILES: CC(C)(C)S(=O)(=O)C[C@H](C1CC1)N1C(=O)[C@@](C)(Cc2ncc(CC(=O)O)s2)C[C@H](c2cccc(Cl)c2)[C@H]1c1ccc(Cl)c(F)c1
- hepatocyte CLint [1]: 5.5 µL/min/1e6 cells
- clearance [2]: 3.83 mL/min/kg
- half-life [3]: 4.4 h
- Vd [4]: 0.27 L/kg
- clearance [5]: 2.5 mL/min/kg
- half-life [6]: 3.2 h
- Vd [7]: 0.35 L/kg
- bioavailability [8]: 56%
- Drug metabolism [9]: metabolite_detected
- Drug metabolism [10]: metabolite_detected
- Drug metabolism [11]: metabolite_detected
- Drug metabolism [12]: metabolite_detected
- Drug metabolism [13]: metabolite_detected
- Drug metabolism [14]: metabolite_notdetected
- Drug metabolism [15]: metabolite_notdetected
- Drug metabolism [16]: metabolite_notdetected
- Drug metabolism [17]: metabolite_notdetected
- Drug metabolism [18]: metabolite_notdetected

SMILES: CC(C)(C)S(=O)(=O)C[C@H](C1CC1)N1C(=O)[C@@](C)(Cc2nc(CC(=O)O)cs2)C[C@H](c2cccc(Cl)c2)[C@H]1c1ccc(Cl)cc1
- hepatocyte CLint [1]: 5.3 µL/min/1e6 cells

SMILES: CC(C)(C)S(=O)(=O)C[C@H](C1CC1)N1C(=O)[C@@](C)(Cc2ccc(C(=O)O)cn2)C[C@H](c2cccc(Cl)c2)[C@H]1c1ccc(Cl)c(F)c1
- hepatocyte CLint [1]: 7.8 µL/min/1e6 cells

SMILES: CC(C)(C)S(=O)(=O)C[C@H](C1CC1)N1C(=O)[C@@](C)(Cc2ccc(CC(=O)O)cn2)C[C@H](c2cccc(Cl)c2)[C@H]1c1ccc(Cl)cc1
- hepatocyte CLint [1]: 3.4 µL/min/1e6 cells

SMILES: CC(C)(C(=O)O)c1ccc(C[C@@]2(C)C[C@H](c3cccc(Cl)c3)[C@@H](c3ccc(Cl)cc3)N([C@H](CS(=O)(=O)C(C)(C)C)C3CC3)C2=O)nc1
- hepatocyte CLint [1]: < 0.1 µL/min/1e6 cells

SMILES: Cc1nc(C[C@@]2(C)C[C@H](c3cccc(Cl)c3)[C@@H](c3ccc(Cl)cc3)N([C@H](CS(=O)(=O)C(C)(C)C)C3CC3)C2=O)ccc1C(=O)O
- hepatocyte CLint [1]: 26 µL/min/1e6 cells

SMILES: Cc1cc(C[C@@]2(C)C[C@H](c3cccc(Cl)c3)[C@@H](c3ccc(Cl)cc3)N([C@H](CS(=O)(=O)C(C)(C)C)C3CC3)C2=O)ncc1C(=O)O
- hepatocyte CLint [1]: 5.1 µL/min/1e6 cells

SMILES: CC(C)(C)S(=O)(=O)C[C@H](C1CC1)N1C(=O)[C@@](C)(Cc2ncc(C(=O)O)cn2)C[C@H](c2cccc(Cl)c2)[C@H]1c1ccc(Cl)cc1
- hepatocyte CLint [1]: 10 µL/min/1e6 cells

SMILES: CC(C)(C)S(=O)(=O)C[C@H](C1CC1)N1C(=O)[C@@](C)(Cc2ncc(C(=O)O)cn2)C[C@H](c2cccc(Cl)c2)[C@H]1c1ccc(Cl)c(F)c1
- hepatocyte CLint [1]: 14 µL/min/1e6 cells

SMILES: CC(C)(C)S(=O)(=O)C[C@H](C1CC1)N1C(=O)[C@@](C)(Cc2cnc(C(=O)O)cn2)C[C@H](c2cccc(Cl)c2)[C@H]1c1ccc(Cl)cc1
- hepatocyte CLint [1]: 25 µL/min/1e6 cells

SMILES: CC(C)(C)S(=O)(=O)C[C@H](C1CC1)N1C(=O)[C@@](C)(Cn2cc(C(=O)O)cn2)C[C@H](c2cccc(Cl)c2)[C@H]1c1ccc(Cl)cc1
- hepatocyte CLint [1]: 2.8 µL/min/1e6 cells

SMILES: CC(C)(C)S(=O)(=O)C[C@H](C1CC1)N1C(=O)[C@@](C)(Cc2nc(C(=O)O)cs2)C[C@H](c2cccc(Cl)c2)[C@H]1c1ccc(Cl)cc1
- hepatocyte CLint [1]: 1.8 µL/min/1e6 cells

SMILES: CC(C)(C)S(=O)(=O)C[C@H](C1CC1)N1C(=O)[C@@](C)(Cc2ncc(C(=O)O)s2)C[C@H](c2cccc(Cl)c2)[C@H]1c1ccc(Cl)cc1
- hepatocyte CLint [1]: 8.7 µL/min/1e6 cells
- clearance [2]: 3.17 mL/min/kg
- half-life [3]: 3.6 h
- Vd [4]: 0.18 L/kg
- clearance [5]: 5.83 mL/min/kg
- half-life [6]: 3.3 h
- Vd [7]: 0.67 L/kg
- bioavailability [8]: 18%

SMILES: CC(C)(C)S(=O)(=O)C[C@H](C1CC1)N1C(=O)[C@@](C)(Cc2ncc(C(=O)CO)s2)C[C@H](c2cccc(Cl)c2)[C@H]1c1ccc(Cl)cc1
- hepatocyte CLint [1]: 47 µL/min/1e6 cells

SMILES: CC(C)(C)S(=O)(=O)C[C@H](C1CC1)N1C(=O)[C@@](C)(Cc2ncc(C(=O)O)s2)C[C@H](c2cccc(Cl)c2)[C@H]1c1ccc(Cl)c(F)c1
- hepatocyte CLint [1]: 10 µL/min/1e6 cells
- clearance [2]: 1.5 mL/min/kg
- half-life [3]: 2.3 h
- Vd [4]: 0.41 L/kg
- clearance [5]: 2.5 mL/min/kg
- half-life [6]: 4.1 h
- Vd [7]: 0.53 L/kg
- bioavailability [8]: 36%

SMILES: CC(C)(C)S(=O)(=O)C[C@H](C1CC1)N1C(=O)[C@@](C)(Cc2nccs2)C[C@H](c2cccc(Cl)c2)[C@H]1c1ccc(Cl)c(F)c1
- hepatocyte CLint [1]: 14 µL/min/1e6 cells

SMILES: CC(C)(C)S(=O)(=O)C[C@H](C1CC1)N1C(=O)[C@@](C)(Cc2ncc(CC(=O)O)s2)C[C@H](c2cccc(Cl)c2)[C@H]1c1ccc(Cl)cc1
- hepatocyte CLint [1]: 5.8 µL/min/1e6 cells
- clearance [2]: 22.8 mL/min/kg
- half-life [3]: 1.81 h
- Vd [4]: 0.74 L/kg
- clearance [5]: 7.17 mL/min/kg
- half-life [6]: 2.01 h
- Vd [7]: 0.72 L/kg
- bioavailability [8]: 10%

SMILES: CC(C)(C(=O)O)c1cnc(C[C@@]2(C)C[C@H](c3cccc(Cl)c3)[C@@H](c3ccc(Cl)cc3)N([C@H](CS(=O)(=O)C(C)(C)C)C3CC3)C2=O)s1
- hepatocyte CLint [1]: 3.6 µL/min/1e6 cells

SMILES: CC(C)(C)S(=O)(=O)C[C@H](C1CC1)N1C(=O)[C@@](C)(Cc2ncc(C3(C(=O)O)CC3)s2)C[C@H](c2cccc(Cl)c2)[C@H]1c1ccc(Cl)cc1
- hepatocyte CLint [1]: 7.7 µL/min/1e6 cells

SMILES: CC(C)(C)S(=O)(=O)C[C@H](C1CC1)N1C(=O)[C@@](C)(Cc2ncc(C(F)(F)C(=O)O)s2)C[C@H](c2cccc(Cl)c2)[C@H]1c1ccc(Cl)c(F)c1
- hepatocyte CLint [1]: 4.7 µL/min/1e6 cells

SMILES: CC(C)(C)S(=O)(=O)C[C@H](C1CC1)N1C(=O)[C@@](C)(Cc2ncc(CC(=O)O)o2)C[C@H](c2cccc(Cl)c2)[C@H]1c1ccc(Cl)c(F)c1
- hepatocyte CLint [1]: 4.3 µL/min/1e6 cells

SMILES: CC(C)(C)S(=O)(=O)C[C@H](C1CC1)N1C(=O)[C@@](C)(Cc2nnc(CC(=O)O)[nH]2)C[C@H](c2cccc(Cl)c2)[C@H]1c1ccc(Cl)cc1
- hepatocyte CLint [1]: 10 µL/min/1e6 cells

SMILES: CC(C)(C)S(=O)(=O)C[C@H](C1CC1)N1C(=O)[C@@](C)(Cc2ncc(CC(=O)O)[nH]2)C[C@H](c2cccc(Cl)c2)[C@H]1c1ccc(Cl)cc1
- hepatocyte CLint [1]: 5 µL/min/1e6 cells

Source: ChEMBL document CHEMBL3232711, “Novel inhibitors of the MDM2-p53 interaction featuring hydrogen bond acceptors as carboxylic acid isosteres” (J Med Chem, 2014)
